Reference: article PMC8769072, “Proteome‐scale mapping of binding sites in the unstructured regions of the human proteome” (Molecular Systems Biology, 2022)

Tested on: immobilized GST-tagged bait protein domains
Test: ProP-PD phage selections (HD2 P8, sublibraries, HD2 P3, HD1 P8) with NGS and confidence level
Format: binding, human
Settings: for HD2_endomembrane confidence: HD2 P8 endomembrane sublibrary
[1] = HD2 library, bait SUMO1_SUMO__P63165_1_101, known motif instance of the benchmarking set found (TRUE) or not found (FALSE) among selected peptides
[2] = bait OXSR1___O95747_434_527, HD2 library, whether the validated benchmark motif instance was recovered in the ProP-PD selection (TRUE/FALSE)
[3] = bait CRK_SH3_1_P46108_124_198, library HD2, benchmarking set of validated motif instances, TRUE = motif instance recovered in the ProP-PD selection
[4] = bait MAP1LC3A_ATG8__Q9H492_2_121, confidence level (4 = High, 2-3 = Medium, 1 = Low)
[5] = bait MAP1LC3A_ATG8 (Q9H492 2-121), HD2 library, benchmark motif instance recovered in the ProP-PD selection (TRUE/FALSE)
[6] = bait MAP1LC3A_ATG8 (Q9H492 2-121), HD2 library, confidence level (1-4) of best matching peptide
[7] = bait MAP1LC3A_ATG8 (Q9H492 2-121), HD2 library, specificity score of best matching peptide

Work on VFPRPVLPSLTVSRVI yielded an HD2 confidence (bait ANKRA2_Ank__Q9H9E1_142_313, library HD2 P8) of 4, an HD2_nc confidence (bait ANKRA2_Ank__Q9H9E1_142_313, library HD2 P8 nucleocytoplasmic) of 3 and an HD2_nc count proportions (bait ANKRA2_Ank__Q9H9E1_142_313, library HD2 P8 nucleocytoplasmic, mean normalised NGS counts) of 0.003084. The HD2_nc mean counts (bait ANKRA2_Ank__Q9H9E1_142_313, library HD2 P8 nucleocytoplasmic, mean raw NGS counts, all selections) was 216.6.
VGDTSRGQVIIISDSDDDDDERILSLEK was tested, and the motif_found [1] was “FALSE”.
For VGRFQVTSSKEPAEPL, the best_confidence (bait OXSR1___O95747_434_527, HD2 library, confidence level (1-4) of best matching selected peptide) was 4, the best_specificity (bait OXSR1___O95747_434_527, HD2 library, specificity score of best matching selected peptide) was 1 and the motif_found [2] was “TRUE”.
With VGSQADTNVIDLTGDDKDDL the motif_found [1] was “FALSE”.
VIGSADCNVIEIDDTLDDSDED was tested, and the motif_found [1] was “FALSE”.
For VLGDQRRPSLPALHFIKGAGKK, the motif_found (library HD2, bait ANKRA2_Ank__Q9H9E1_142_313, motif instance NOT in library (in_library_check FALSE, in_library_coverage 0)) was “FALSE”.
VMSLPKLQQVPGLHPQ showed an HD confidence (bait ANKRA2_Ank__Q9H9E1_142_313, library HD) of 3, an HD count proportions (bait ANKRA2_Ank__Q9H9E1_142_313, library HD, mean normalised NGS counts) of 0.003008 and an HD mean counts (bait ANKRA2_Ank__Q9H9E1_142_313, library HD, mean raw NGS counts, all selections) of 34.0.
With VPNVHAAEFVPSFLRG the best_confidence (bait PABP-B_PABP__P11940_544_623, HD2 library, confidence level (1-4) of best matching selected peptide) was 4, the best_specificity (bait PABP-B_PABP__P11940_544_623, HD2 library, specificity score of best matching selected peptide) was 1 and the motif_found (bait PABP-B_PABP__P11940_544_623, HD2 library, whether the validated benchmark motif instance was recovered in the ProP-PD selection (TRUE/FALSE)) was “TRUE”.
With VPSPASLWPPPPSPAPSST the motif_found (library HD2, bait VASP_EVH1__P50552_1_114, validated benchmark motif instance, in_library_check TRUE, TRUE/FALSE = instance recovered in ProP-PD selection) was “FALSE”.
For VPTLPPKQQFLPSSPG, the HD2_nc confidence (bait CRK_SH3_1_P46108_124_198, HD2 P8 nucleocytoplasmic sublibrary, confidence level (4 = High, 2-3 = Medium, 1 = Low)) was 4, the HD2_nc mean counts (bait CRK_SH3_1_P46108_124_198, HD2 P8 nucleocytoplasmic sublibrary, mean NGS counts over replicate selections) was 1917.0 and the HD2_nc count proportions (bait CRK_SH3_1_P46108_124_198, HD2 P8 nucleocytoplasmic sublibrary, mean proportion of NGS counts) was 0.01185.
With VQPKQDAFANFANFSK the HD confidence (bait AP2B1_adaptin__P63010_700_937, library HD) was 2, the HD count proportions (bait AP2B1_adaptin__P63010_700_937, library HD, mean normalised NGS counts) was 0.0004926 and the HD mean counts (bait AP2B1_adaptin__P63010_700_937, library HD, mean raw NGS counts, all selections) was 1.25.
VSGSHCTPPPPYHADP was tested, and the best_confidence (library HD2, bait YAP1_WW_1_P46937_169_207, confidence level of best matching selected peptide (4 High, 2-3 Medium, 1 Low)) was 4, the best_specificity (library HD2, bait YAP1_WW_1_P46937_169_207, specificity score of best matching selected peptide) was 0.99 and the motif_found (library HD2, bait YAP1_WW_1_P46937_169_207, validated benchmark motif instance, in_library_check TRUE, TRUE/FALSE = instance recovered in ProP-PD selection) was “TRUE”.
With VSPSTSY the motif_found (library HD2, bait USP7_MATH-TRAF__Q93009_53_206, validated benchmark motif instance, in_library_check TRUE, TRUE/FALSE = instance recovered in ProP-PD selection) was “FALSE”.
With VSSAAPSPRGCADGRDADPTEE the motif_found (HD2 library, bait TNKS_TANK-peptide-bind__O95271_174_649, known motif instance of the benchmarking set found (TRUE) or not found (FALSE) among selected peptides) was “FALSE”.
For VSVDSIPLEWDHTGDVGGSSSHE, the motif_found (library HD2, bait KLC1_TPR__Q07866_203_497, whether the validated benchmark motif instance was recovered in the ProP-PD selection (TRUE/FALSE)) was “FALSE”.
In the case of VVDNSPPPALPPKKRQSAPS [RAPGEF1], the motif_found [3] is reported as “FALSE”.
For VVHSAGRRFIVSPVPESRL, the motif_found [2] was “FALSE”.
WADFSSTWPTSTNEKP gave an HD2_endomembrane confidence (bait AP2B1_adaptin__P63010_700_937, confidence level (4 = High, 2-3 = Medium, 1 = Low)) of 4.
Work on WAKFSNDNIKHSQNMR yielded an HD confidence (bait AP2B1_adaptin__P63010_700_937, HD1 P8 library, confidence level (4 = High, 2-3 = Medium, 1 = Low)) of 4, an HD mean counts (bait AP2B1_adaptin__P63010_700_937, HD1 P8 library, mean NGS counts over replicate selections) of 1.5 and an HD count proportions (bait AP2B1_adaptin__P63010_700_937, HD1 P8 library, mean proportion of NGS counts) of 0.0005262.
Work on WEALNDSVKTSMHWVV yielded an HD2-1mM_CaCl confidence (bait CALM1 EF-hand (P0DP23, 2-149), HD2 library selection with 1mM_CaCl, confidence level (4 = High, 2 or 3 = Medium, 1 = Low)) of 2 and an HD2 confidence (bait CALM1 EF-hand (P0DP23, 2-149), HD2 library selection, confidence level (4 = High, 2 or 3 = Medium, 1 = Low)) of 3.
With WEMVPRHSSWGDVGVG the HD2_endomembrane confidence [4] was 4.
For WNERQPAPALPPKPPKPTTV [PIK3R1], the motif_found [3] was “TRUE”.
With WQPFPDDHSACLRPGS the HD2 confidence (bait AP2B1_adaptin__P63010_700_937, HD2 P8 selection, non primary paralogue peptide match, confidence level -4 to 4: 4 = High, 3 or 2 = Medium, 1 = Low, 0 = Filtered/Noise) was 3.
WRVLGLCLLSVGVWGQ showed an HD2_cytoplasm confidence (bait CALM1_EF-hand__P0DP23_2_149, HD2 P8 cytoplasm sublibrary, confidence level (4 = High, 2-3 = Medium, 1 = Low)) of 3.
WTHLSSKEVDPSTGEL was tested, and the motif_found [5] was “TRUE”, the best_confidence [6] was 4 and the best_specificity [7] was 1. The motif_found (bait MAP1LC3B_ATG8 (Q9GZQ8 2-119), HD2 library, benchmark motif instance recovered in the ProP-PD selection (TRUE/FALSE)) was “TRUE”, the best_confidence (bait MAP1LC3B_ATG8 (Q9GZQ8 2-119), HD2 library, confidence level (1-4) of best matching peptide) was 3 and the best_specificity (bait MAP1LC3B_ATG8 (Q9GZQ8 2-119), HD2 library, specificity score of best matching peptide) was 1.
Substance WTMVDENFSTLSLTQS has an HD2_endomembrane confidence [4] of 4.
In the case of WVELPMNSSNGNDNGN, the motif_found [5] is reported as “TRUE”, the best_confidence [6] is reported as 2 and the best_specificity [7] is reported as 1.
YAKKVGYTPDWIFLLRNVMRI [CLTC 511-517] was tested, and the motif_found (HD2 library, bait MAP1LC3A_ATG8__Q9H492_2_121, benchmark motif instance, in_library_check FALSE, in_library_coverage 0) was “FALSE” and the motif_found (HD2 library, bait MAP1LC3B_ATG8__Q9GZQ8_2_119, benchmark motif instance, in_library_check FALSE, in_library_coverage 0) was “FALSE”.
In the case of YDREFLLDFQFMPACI, the best_specificity (library HD2, bait EIF4E_eIF4E__P06730_1_217, best matching peptide) is reported as 1, the best_confidence (library HD2, bait EIF4E_eIF4E__P06730_1_217, confidence level of best matching peptide (4 High, 2-3 Medium, 1 Low)) is reported as 2 and the motif_found (library HD2, bait EIF4E_eIF4E__P06730_1_217, whether the validated benchmark motif instance was recovered in the ProP-PD selection (TRUE/FALSE)) is reported as “TRUE”.
For “YRLARQRIIQFQARCRAYLVRKAFRHRLWAV [MYO7A 817-833]”, the motif_found (HD2 library, bait CALM1_EF-hand__P0DP23_2_149, benchmark motif instance, in_library_check FALSE, in_library_coverage 0) was “FALSE”.
With YSFFSPSPARKRHAPSPEPAV the motif_found (bait KPNA4_Arm (O00629 68-487), HD2 library, benchmark motif instance recovered in the ProP-PD selection (TRUE/FALSE)) was “FALSE”.
For YTSPSLPNISLGLQAT, the best_specificity (bait ANKRA2_Ank__Q9H9E1_142_313, library HD2, best matching peptide) was 1 and the best_confidence (bait ANKRA2_Ank__Q9H9E1_142_313, library HD2, confidence level of best matching peptide (4 = High, 2 or 3 = Medium, 1 = Low)) was 4.
